Test results reported in ChEMBL document CHEMBL1833844, “Sulfonamides as selective oestrogen receptor β agonists” (Bioorg Med Chem Lett, 2011).

Assays:
[1] = Octanol-buffer partition coefficient, log D of the compound at pH 7.4; format: physicochemical
[2] = target: T1, Estrogen receptor (Homo sapiens, UniProt P03372); assay: Agonist activity at ERalpha expressed in HEK cells co-expressing beta-lactamase after 18 hrs by beta-lactamase reporter gene assay; format: functional, cell-based, HEK293
T1 sequence (P03372 whole entry): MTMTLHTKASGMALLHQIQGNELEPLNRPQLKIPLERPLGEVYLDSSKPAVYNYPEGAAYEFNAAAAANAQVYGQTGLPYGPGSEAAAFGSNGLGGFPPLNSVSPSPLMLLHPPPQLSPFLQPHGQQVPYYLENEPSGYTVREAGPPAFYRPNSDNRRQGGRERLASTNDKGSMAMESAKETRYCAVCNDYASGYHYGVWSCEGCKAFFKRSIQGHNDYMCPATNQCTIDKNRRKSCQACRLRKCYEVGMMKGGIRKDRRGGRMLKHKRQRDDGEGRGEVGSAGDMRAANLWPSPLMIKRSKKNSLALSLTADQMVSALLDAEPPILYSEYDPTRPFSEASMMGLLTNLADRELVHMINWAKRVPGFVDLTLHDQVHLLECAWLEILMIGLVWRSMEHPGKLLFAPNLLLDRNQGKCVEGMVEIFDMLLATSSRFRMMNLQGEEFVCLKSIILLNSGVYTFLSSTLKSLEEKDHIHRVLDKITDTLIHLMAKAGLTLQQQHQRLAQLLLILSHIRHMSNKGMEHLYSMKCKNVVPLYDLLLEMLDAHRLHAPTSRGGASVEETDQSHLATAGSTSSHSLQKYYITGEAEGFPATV

[3] = target: T2, Estrogen receptor beta (Homo sapiens, UniProt Q92731); assay: Agonist activity at ERbeta expressed in […] cells co-expressing beta-lactamase after 18 hrs by beta-lactamase reporter gene assay; format: functional, cell-based
[4] = target: T2, Estrogen receptor beta; assay: Agonist activity at ERbeta expressed in […] cells co-expressing beta-lactamase at 10 uM after 18 hrs by beta-lactamase reporter gene assay relative to estradiol; format: functional, cell-based
[5] = target: T3, Estrogen receptor (Homo sapiens) (UniProt P03372); assay: Agonist activity at ERalpha expressed in HEK cells co-expressing beta-lactamase at 10 uM after 18 hrs by beta-lactamase reporter gene assay relative to estradiol; format: functional, cell-based; conditions: HEK293
T3 sequence (whole entry): T1 sequence (P03372 whole entry)

T2 sequence (Q92731 whole entry): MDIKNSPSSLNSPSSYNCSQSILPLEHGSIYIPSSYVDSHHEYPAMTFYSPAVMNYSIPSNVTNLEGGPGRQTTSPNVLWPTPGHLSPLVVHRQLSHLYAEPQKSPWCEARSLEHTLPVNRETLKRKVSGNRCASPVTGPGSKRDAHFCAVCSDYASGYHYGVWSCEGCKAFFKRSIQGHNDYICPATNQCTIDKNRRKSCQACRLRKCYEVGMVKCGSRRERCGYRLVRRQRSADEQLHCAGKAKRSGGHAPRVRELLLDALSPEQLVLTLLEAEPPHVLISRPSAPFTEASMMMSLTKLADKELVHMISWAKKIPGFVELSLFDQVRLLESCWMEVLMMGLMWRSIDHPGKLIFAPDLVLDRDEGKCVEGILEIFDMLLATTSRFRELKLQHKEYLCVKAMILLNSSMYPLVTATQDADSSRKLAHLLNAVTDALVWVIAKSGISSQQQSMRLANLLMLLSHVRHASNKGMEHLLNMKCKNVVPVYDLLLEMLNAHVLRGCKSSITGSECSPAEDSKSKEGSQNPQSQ

Structure (SMILES) | logD [1] | EC50 [2] [nM] | EC50 [3] [nM] | Emax [4] [%] | Emax [5] [%]
CC(O)(CN(C1CC1)S(=O)(=O)c1ccc(O)cc1)c1ccc(O)cc1 (racemic) | 2 | > 4800 | 437 | 82 | –
C[C@@](O)(CN(C1CC1)S(=O)(=O)c1ccc(O)cc1)c1ccccc1 | – | > 4560 | 110 | < 20 | 85
CN(CC(C)(O)c1ccccc1)S(=O)(=O)c1ccc(O)cc1 (racemic) | – | > 3200 | 1100 | 49 | –
O=S(=O)(c1ccc(O)cc1)N(CCC(F)(F)F)c1ccc(O)cc1 | – | 357 | 43 | 104 | 87
Cc1ccc(O)c(CCNS(=O)(=O)c2ccc(O)cc2)c1 | – | – | > 2400 | 73 | –
O=S(=O)(c1ccc(O)cc1)N1[C@@H]2CC[C@H]1C[C@H](CO)C2 | – | 3500 | > 3000 | 111 | 94
CCCCC(O)(CN(C1CC1)S(=O)(=O)c1ccc(O)cc1)c1ccccc1 (racemic) | 3.9 | > 6510 | 65 | 36 | 82
CC(C)N(CC(C)(O)c1ccccc1)S(=O)(=O)c1ccc(O)cc1 (racemic) | 2.9 | > 2610 | 418 | 44 | 89
CC(O)(CN(C1CC1)S(=O)(=O)c1ccc(O)cc1)c1cc[nH]n1 (racemic) | 1.3 | > 10000 | 1480 | 86 | –
CC(O)(CN(C1CC1)S(=O)(=O)c1ccc(O)cc1)c1ccccc1F (racemic) | 3 | > 10000 | 48 | 49 | –
O=S(=O)(c1ccc(O)cc1)N(CC(O)(c1ccccc1)C(F)(F)F)C1CC1 (racemic) | 3.2 | > 2680 | 14 | 43 | 66
CC(O)(CN(C1CC1)S(=O)(=O)c1ccc(O)cc1)c1ccccc1 (racemic) | 2.5 | 2310 | 101 | 47 | 79
C[C@](O)(CN(C1CC1)S(=O)(=O)c1ccc(O)cc1)c1ccccc1 | 2.7 | > 5400 | 79 | 48 | 107
CC(O)(CN(C1CC1)S(=O)(=O)c1ccc(O)cc1)c1c(F)cccc1F (racemic) | 2.9 | 3800 | 51 | 45 | 75
CCCCN(CC(C)(O)c1ccccc1)S(=O)(=O)c1ccc(O)cc1 (racemic) | 3.4 | > 1100 | 84 | < 30 | 82
